Values of other authors in patent US20200179438A1, “BLOOD GLUCOSE SPIKE SUPPRESSOR, FOOD PRODUCT, AND METHOD FOR PRODUCING BLOOD GLUCOSE SPIKE SUPPRESSOR” (priority 2017, published 2020).

Conditions: for time until HB purity decreases after its increase: oral administration

SMILES | time until HB purity decreases after its increase | HB purity in the blood after oral administration (oral, reached in several minutes)
C[C@@H](O)CC(=O)O [HB, (R)-3-hydroxybutyric acid] | within several hours | 
C[C@@H](O)CCOC(=O)C[C@@H](C)O [KE] | within several hours | several millimolar
